# Laboratory results as given in patent publication US20240228482A1, “COMPOUNDS, COMPOSITIONS AND METHODS OF TREATING CANCER” (HOTSPOT THERAPEUTICS, INC., priority 2021, published 2024).
# Molecular target: T1, CBL-B (Homo sapiens, UniProt Q13191)
# T1 construct: GST
# Assay: CBL-B TR-FRET IC50 screening (E1/E2 ubiquitination, Biotin-Ubiquitin, Anti GST-Tb donor / Streptavidin-d2 acceptor)
# Format: biochemical
# Details: CBL-B 10 nM final; 11-point titration from 100 uM; binned A-F; read-out: CBL-B TR-FRET activity IC50
# T1 sequence (Q13191 whole entry): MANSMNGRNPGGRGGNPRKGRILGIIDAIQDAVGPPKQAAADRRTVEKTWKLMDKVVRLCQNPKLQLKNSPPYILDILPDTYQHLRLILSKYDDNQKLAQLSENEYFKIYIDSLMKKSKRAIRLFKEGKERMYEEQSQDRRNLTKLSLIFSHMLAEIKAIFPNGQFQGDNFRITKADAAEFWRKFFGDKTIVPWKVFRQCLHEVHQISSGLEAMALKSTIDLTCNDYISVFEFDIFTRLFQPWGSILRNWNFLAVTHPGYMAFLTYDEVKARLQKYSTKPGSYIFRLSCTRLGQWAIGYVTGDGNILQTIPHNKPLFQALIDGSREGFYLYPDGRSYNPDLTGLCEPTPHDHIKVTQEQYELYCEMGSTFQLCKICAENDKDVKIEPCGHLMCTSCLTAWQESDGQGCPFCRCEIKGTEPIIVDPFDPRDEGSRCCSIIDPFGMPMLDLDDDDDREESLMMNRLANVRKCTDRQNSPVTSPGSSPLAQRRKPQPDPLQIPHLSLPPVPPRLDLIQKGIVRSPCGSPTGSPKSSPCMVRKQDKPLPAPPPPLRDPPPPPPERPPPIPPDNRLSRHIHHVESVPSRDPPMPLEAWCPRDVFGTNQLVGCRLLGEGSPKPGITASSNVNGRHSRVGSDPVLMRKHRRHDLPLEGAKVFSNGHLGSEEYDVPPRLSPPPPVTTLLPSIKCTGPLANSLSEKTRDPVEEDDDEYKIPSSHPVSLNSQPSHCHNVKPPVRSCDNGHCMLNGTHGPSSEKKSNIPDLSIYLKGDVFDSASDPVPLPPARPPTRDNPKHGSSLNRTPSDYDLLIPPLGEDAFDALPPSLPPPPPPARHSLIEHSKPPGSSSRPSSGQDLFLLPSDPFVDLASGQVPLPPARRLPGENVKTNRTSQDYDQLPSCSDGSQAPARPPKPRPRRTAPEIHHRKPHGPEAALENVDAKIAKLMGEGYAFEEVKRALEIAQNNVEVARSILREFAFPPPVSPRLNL
row,SMILES,IC50
1,Cn1cnnc1[C@@H](c1cccc(-n2cc3c(C(F)(F)F)cc(CN4CCO[C@H](C(F)(F)F)C4)cn3c2=O)c1)C1CCC1 [Compound 321],< 100 nM
2,"C[C@@H]1CN([C@@H](C)c2cc(C(F)(F)F)c3cn(-c4cccc([C@H](c5nncn5C)C5CCC5)c4)c(=O)n3c2)CCO1 (single isomer, unassigned) [Compound 234]",< 100 nM
3,Cn1cnnc1C(F)(F)[C@](C)(F)c1cccc(-n2cc3c(C(F)(F)F)cc(CN4CC[C@H](F)C4)cn3c2=O)c1 [Compound 26],100 to 300 nM
4,COC[C@@H]1CCCN1Cc1cc(C(F)(F)F)c2cn(-c3cccc([C@@H](c4nncn4C)C4CCC4)c3)c(=O)n2c1 [Compound 382_P1],< 100 nM
5,"C[C@H]1CCCN(Cc2cc(C(F)(F)F)c3cn(-c4cc(F)cc([C@@H](c5nncn5C)C5CCC5)c4)c(=O)n3c2)C1 (single isomer, unassigned) [Compound 242]",> 10000 nM
6,"Cc1scnc1[C@H](c1cccc(-n2cc3c(C(F)(F)F)cc(CN4CCC[C@H](C)C4)cn3c2=O)c1)C1CCC1 (single isomer, unassigned) [Compound 282]",> 10000 nM
7,Cc1c[nH]nc1[C@H](c1cccc(-n2cc3c(C(F)(F)F)cc(CN4CCO[C@H](C)C4)cn3c2=O)c1)C1CCC1 [Compound 220],3000 to 10000 nM
8,Cn1cnnc1[C@@H](c1cccc(-n2cc3c(C(F)(F)F)cc(CN4CCc5ncsc5C4)cn3c2=O)c1)C1CCC1 [Compound 265],< 100 nM
9,"C[C@@H]1CN([C@@H](C)c2cc(C(F)(F)F)c3cn(-c4cccc([C@@H](c5nncn5C)C5CCC5)c4)c(=O)n3c2)CCO1 (single isomer, unassigned) [Compound 232]",301 to 1000 nM
10,Cc1c[nH]nc1C1(c2cccc(-n3cc4c(C(F)(F)F)cc(CN5CCO[C@H](C)C5)cn4c3=O)c2)CC2(CC2)C1 [Compound 241],301 to 1000 nM
11,CN1C2CCC1CN(c1cc(C(F)(F)F)c3cn(-c4cccc([C@H](c5nncn5C)C5CCC5)c4)c(=O)n3c1)C2 [Compound 374],301 to 1000 nM
12,CC(=O)N1C2CCC1CN(Cc1cc(C(F)(F)F)c3cn(-c4cccc([C@H](c5nncn5C)C5CCC5)c4)c(=O)n3c1)C2 [Compound 349],< 100 nM
13,Cn1cnnc1[C@@H](c1cccc(-n2cc3c(C(F)(F)F)cc(CN4CC(C)(F)C4)cn3c2=O)c1)C1CCC1 [Compound 298],< 100 nM
14,Cc1[nH]nnc1[C@H](c1cccc(-n2cc3c(C(F)(F)F)cc(CN4CCC[C@H](C)C4)cn3c2=O)c1)C1CCC1 [Compound 326],< 100 nM
15,Cn1cnnc1[C@@H](c1cccc(-n2cc3c(C(F)(F)F)cc(CN4CC(C)(C)C4)cn3c2=O)c1)C1CCC1 [Compound 337],< 100 nM
16,CO[C@H]1CCN(Cc2cc(C(F)(F)F)c3cn(-c4cccc([C@H](c5nncn5C)C5CCC5)c4)c(=O)n3c2)C1 [Compound 259],< 100 nM
17,CC(=O)N1CCN(Cc2cc(C(F)(F)F)c3cn(-c4cccc([C@H](c5nncn5C)C5CCC5)c4)c(=O)n3c2)CC1 [Compound 339_P2],1000 to 3000 nM
18,"COC1(C[C@H](c2cccc(-n3cc4c(C(F)(F)F)cc(CN5CCC[C@H](C)C5)cn4c3=O)c2)c2nncn2C)CC1 (single isomer, unassigned) [Compound 366]",> 10000 nM
19,"Cn1cnnc1[C@]1(c2cccc(-n3cc4c(C(F)(F)F)cc(CN5CCc6ncsc6C5)cn4c3=O)c2)C[C@H](C)C1 (single isomer, unassigned) [Compound 308]",< 100 nM

# Continued, values first:
row,IC50,SMILES
1,1000 to 3000 nM,CNS(=O)(=O)c1cc(C(F)(F)F)c2cn(-c3cccc(C4(Cc5nncn5C)COC4)c3)c(=O)n2c1 [Compound 175]
2,301 to 1000 nM,Cn1cnnc1C(c1cccc(-n2cc3c(C(F)(F)F)cc(Br)cn3c2=O)c1)C1COC1 (stereo not shown) [Compound 127]
3,> 10000 nM,Cn1cnnc1C1(c2cccc(-n3cc4c(C(F)(F)F)cc(Br)cn4c3=O)c2)COC1 [Compound 230]
4,301 to 1000 nM,C[C@H](Cc1nncn1C)c1cccc(-n2cc3c(C(F)(F)F)cccn3c2=O)c1 [Compound 2]
5,< 100 nM,[2H]C([2H])([2H])n1cnnc1CC1(c2cccc(-n3cc4c(C(F)(F)F)cc([C@@H](C)N5CCO[C@H](C)C5)cn4c3=O)c2)COC1 [Compound 287_P2]
6,301 to 1000 nM,Cn1cnnc1CC1(c2cccc(-n3cc4c(C(F)F)cccn4c3=O)c2)COC1 [Compound 95]
7,< 100 nM,Cn1cnnc1CC1(c2cccc(-n3cc4c(C(F)(F)F)cc(CN5CC(F)C5)cn4c3=O)c2)COC1 [Compound 23]
8,301 to 1000 nM,Cn1cnnc1CC1(c2cccc(-n3cc4c(C(F)(F)F)cc(CCC(=O)O)cn4c3=O)c2)COC1 [Compound 92]
9,< 100 nM,"CC(c1cc(C(F)(F)F)c2cn(-c3cccc(C4(Cc5nncn5C(F)F)COC4)c3)c(=O)n2c1)N1CCC(F)CC1 (single isomer, unassigned) [Compound 97]"
10,> 10000 nM,CN1CCCC(c2cc(C(F)(F)F)c3cn(-c4cccc(C5(Cc6nncn6C)COC5)c4)c(=O)n3c2)C1 (stereo not shown) [Compound 84]
11,< 100 nM,C[C@H](c1cc(C(F)(F)F)c2cn(-c3cccc(C4(Cc5nncn5C)COC4)c3)c(=O)n2c1)N1CC[C@H](F)C1 [Compound 40]
12,< 100 nM,O=c1n(-c2cccc(C3(Cc4nncn4C(F)F)COC3)c2)cc2c(C(F)(F)F)cc(CN3CCC4(CC4)C3)cn12 [Compound 91]
13,301 to 1000 nM,CC(Cc1nncn1C)c1cccc(-n2cc3c(C(F)(F)F)cccn3c2=O)c1 (stereo not shown) [Compound 1]
14,1000 to 3000 nM,CNC(=O)c1cc(C(F)(F)F)c2cn(-c3cccc(C4(Cc5nncn5C)COC4)c3)c(=O)n2c1 [Compound 30]
15,> 10000 nM,CN1CCC(c2cc(C(F)(F)F)c3cn(-c4cccc(C5(Cc6nncn6C)COC5)c4)c(=O)n3c2)C1 (stereo not shown) [Compound 83]
16,< 100 nM,Cn1cnnc1C1(c2cccc(-n3cc4c(C(F)(F)F)cc(CN5CCC(F)CC5)cn4c3=O)c2)CC2(CC2)C1 [Compound 112]
17,> 10000 nM,Cn1cnnc1C[C@@H]1CCc2c1cccc2-n1cc2c(C(F)(F)F)cccn2c1=O [Compound 17]

# Same assay, conditions: second part of Table 2 (head 'Patent Cmpd No / Updated Activity'); same CBL-B TR-FRET IC50 bins A-F; read-out: Updated Activity
row,IC50,SMILES
1,3000 to 10000 nM,"C[C@H]1CCCN(Cc2cc(C(F)(F)F)c3cn(-c4cccc([C@@H](c5nncn5C)C5(O)CCC5)c4)c(=O)n3c2)C1 (single isomer, unassigned) [Compound 475]"
2,> 10000 nM,C[C@@H]1CN(Cc2cc(C(F)(F)F)c3cn(-c4cccc(C5(c6nncn6C)CCC5)c4)c(=O)n3c2)CCO1 [Compound 432]
3,< 100 nM,"C[C@H]1CN(Cc2cc(C(F)(F)F)c3cn(-c4cccc([C@H](c5nncn5C)C5CCC5)c4)c(=O)n3c2)CC[C@H]1O (single isomer, unassigned) [Compound 571]"
4,< 100 nM,"C[C@@H]1CN(Cc2cc(C(F)(F)F)c3cn(-c4cccc([C@H](c5nncn5C)C5CCC5)c4)c(=O)n3c2)CC[C@@H]1O (single isomer, unassigned) [Compound 570]"
5,< 100 nM,C[C@H]1CCCN(Cc2cc(C(F)(F)F)c3cn(-c4cccc(C5(c6nncs6)CCC5)c4)c(=O)n3c2)C1 [Compound 626]
6,> 10000 nM,"CC(=O)N(C)Cc1cc([C@@H](c2nncn2C)C2CCC2)cc(-n2cc3c(C(F)(F)F)cccn3c2=O)c1 (single isomer, unassigned) [Compound 512]"
7,< 100 nM,C[C@@H]1CN(Cc2cc(C(F)(F)F)c3cn(-c4cccc([C@H](c5nncn5C)C5CC5)c4)c(=O)n3c2)CCO1 [Compound 612_P2]
8,< 100 nM,CC(=O)N1CCC(c2cc(C(F)(F)F)c3cn(-c4cccc([C@H](c5nncn5C)C5CCC5)c4)c(=O)n3c2)CC1 [Compound 398]
9,> 10000 nM,"Cn1cnnc1[C@H](c1cc(-c2cncnc2)cc(-n2cc3c(C(F)(F)F)cccn3c2=O)c1)C1CCC1 (single isomer, unassigned) [Compound 447]"
10,< 100 nM,[2H]C([2H])(c1cc(C(F)(F)F)c2cn(-c3cccc([C@H](c4nncn4C)C4CCC4)c3)c(=O)n2c1)N1CCC(C)(F)CC1 [Compound 526]
11,301 to 1000 nM,"Cn1cnnc1[C@H](c1cc(F)cc(-n2cc3c(C(F)(F)F)cc(CN4CCC(C)(F)CC4)cn3c2=O)c1)C1CCC1 (single isomer, unassigned) [Compound 540]"
12,100 to 300 nM,"Cn1cnnc1[C@@H](c1cc(F)cc(-n2cc3c(C(F)(F)F)cc(CN4CC(F)(F)C4)cn3c2=O)c1)C1CCC1 (single isomer, unassigned) [Compound 620]"
13,< 100 nM,Cn1cnnc1[C@@H](c1cccc(-n2cc3c(C(F)(F)F)cc(CN4CCC(F)CC4)cn3c2=O)c1)C1COC1 [Compound 414]
14,< 100 nM,"C[C@@H]1CC(=O)NN1Cc1cc(C(F)(F)F)c2cn(-c3cccc([C@H](c4nncn4C)C4CCC4)c3)c(=O)n2c1 (single isomer, unassigned) [Compound 598]"
15,< 100 nM,"COCCO[C@@H]1CCCN(Cc2cc(C(F)(F)F)c3cn(-c4cccc([C@H](c5nncn5C)C5CCC5)c4)c(=O)n3c2)C1 (single isomer, unassigned) [Compound 519]"
16,< 100 nM,Cn1cnnc1[C@@H](c1cccc(-n2cc3c(C(F)(F)F)cc(CN4CCCOC4=O)cn3c2=O)c1)C1CCC1 [Compound 467]
17,> 10000 nM,C[C@H]1CCCN(Cc2cc(C(F)(F)F)c3cn(-c4cccc([C@H](c5nncn5C)C5CNC5)c4)c(=O)n3c2)C1 [Compound 403]
18,> 10000 nM,"Cn1cnnc1[C@H](c1cc(F)cc(-n2cc3c(C(F)(F)F)cc(CN4CC(F)(F)C4)cn3c2=O)c1)C1CCC1 (single isomer, unassigned) [Compound 619]"
19,> 10000 nM,"COCc1nc([C@@H](c2cccc(-n3cc4c(C(F)(F)F)cc(CN5CCC[C@H](C)C5)cn4c3=O)c2)C2CCC2)c(C)s1 (single isomer, unassigned) [Compound 385]"
20,301 to 1000 nM,"CO[C@H]1C[C@@](c2cccc(-n3cc4c(C(F)(F)F)cc([C@@H](C)N5CCC(F)CC5)cn4c3=O)c2)(c2nncn2C)C1 (single isomer, unassigned) [Compound 602]"
21,> 10000 nM,"C[C@H]1CCCN(Cc2cc(C(F)(F)F)c3cn(-c4cccc([C@@H](c5nncn5C)[C@H]5C[C@@](C)(O)C5)c4)c(=O)n3c2)C1 (single isomer, unassigned) [Compound 577]"
22,< 100 nM,Cn1cnnc1[C@@H](c1cccc(-n2cc3c(C(F)(F)F)cc(CN4CCC5(CCNC5=O)CC4)cn3c2=O)c1)C1CCC1 [Compound 609]
